According to PubChem BioAssay (NCI):
Where “and” joins values, the source holds several entries; their conditions need not be identical. Equal values may be shown once.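 1) Cells in 96-well plates. 2) Compound, 48 h, 5 concentrations. 3) Linear interpolation between surrounding doses. 4) Unreached endpoint = highest concentration. GI50 = concentration required for 50% inhibition of growth. Definition used: TGI = concentration required for complete inhibition of growth.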

Columns and labels:
Experiment in all cases: NCI tumour cell line growth inhibition, 48 h
MCF7 breast = test system: MCF7 breast
NCI-H460 lung = test system: NCI-H460 lung
BT-549 breast = test system: BT-549 breast
NCI/ADR-RES ovarian = test system: NCI/ADR-RES ovarian
HOP-62 NSCLC = test system: HOP-62 NSCLC
UO-31 renal = test system: UO-31 renal
U251 CNS = test system: U251 CNS
SR leukemia = test system: SR leukemia
CAKI-1 renal = test system: CAKI-1 renal
DU-145 prostate = test system: DU-145 prostate

SMILES	GI50 (MCF7 breast)	TGI (MCF7 breast)	GI50 (NCI-H460 lung)	TGI (NCI-H460 lung)	GI50 (BT-549 breast)	TGI (BT-549 breast)	GI50 (NCI/ADR-RES ovarian)	TGI (NCI/ADR-RES ovarian) [µM]	GI50 (HOP-62 NSCLC)	TGI (HOP-62 NSCLC)	GI50 (UO-31 renal)	TGI (UO-31 renal)	GI50 (U251 CNS)	TGI (U251 CNS)	GI50 (SR leukemia)	TGI (SR leukemia)	GI50 (CAKI-1 renal)	TGI (CAKI-1 renal)	GI50 (DU-145 prostate)	TGI (DU-145 prostate)
CCn1cc(-c2ccnc3[nH]c(-c4cccc(CN(C)C)c4)cc23)c(-c2ccc(NC(=O)N(C)C)cc2)n1	487 nM and 312 nM	19.4 µM and > 10 µM	209 nM and 109 nM	13.7 µM and > 10 µM	1.45 µM and 2.3 µM	17.3 µM and > 10 µM	23.4 µM and > 10 µM	> 100	385 nM and 1280 nM	14.4 µM and > 10 µM	2.22 µM and 1.99 µM	9.98 µM and > 10 µM	2.34 µM and 4.03 µM	19.1 µM and > 10 µM	122 nM and 31 nM	6.58 µM and 3.28 µM	3360 nM and 1170 nM	18.9 µM and > 10 µM	3.63 µM and 1.97 µM	37.8 µM and > 10 µM
O=C(Nc1nc(-c2c[nH]c3ccccc23)cs1)c1n[nH]c(=O)c2ccccc12	2010 nM	> 100 µM	451 nM	> 36.8 µM	3.89 µM	> 81.2 µM	6.74 µM	78.6	3720 nM	26.6 µM	8.46 µM	> 67.7 µM	0.663 µM	24 µM	1610 nM	–	2440 nM	> 62.3 µM	3.33 µM	> 31 µM
NCCCn1c2c(c3ccc([N+](=O)[O-])cc3c1=O)C(=O)c1cc(I)ccc1-2	< 10 nM	0.517 µM	< 10 nM	1.31 µM	0.931 µM	2.51 µM	0.0416 µM	1.88	21.1 nM	1.75 µM	0.0273 µM	1.5 µM	< 0.01 µM	1.39 µM	< 10 nM	0.929 µM	75.8 nM	1.98 µM	< 0.01 µM	0.118 µM
COc1nc(=O)n(C2C=CC(=O)O2)cc1F (centres undefined)	2300 nM	10.9 µM	12500 nM	28.7 µM	8.29 µM	24.1 µM	10.1 µM	37.4	29700 nM	81.2 µM	5.18 µM	18.3 µM	14.6 µM	29.1 µM	1870 nM	5.86 µM	2670 nM	8.7 µM	11.1 µM	28.2 µM
COC(=O)C1=CN(CC2=CC(=O)C(C)=CC2=O)C=C(C(=O)OC)C1c1ccccc1OC	24400 nM	69.8 µM	33700 nM	> 87.7 µM	17.4 µM	41 µM	17.4 µM	34.8	23500 nM	> 51 µM	16.4 µM	31.2 µM	20 µM	46.7 µM	4010 nM	19.6 µM	16700 nM	37.9 µM	16.8 µM	31.3 µM
